How the values were obtained:
[1] = system: helix; test: Destabilization of a helix in which thymidin is replaced; details: corresponding to the 16 kJ/mol destabilization
From the text: The importance of a complete H-bond network in nucleotide recognition has been investigated. Molecular recognition usually involves several H-bonds. The influence of unsatisfied interfacial H-bond functions can be seen in the destabilization of a helix in which thymidin is replaced by difluortoluoldesoxynucleosid. The experiments have shown that these helices exist in aqueous solution but are destabilized by 16 kJ/mol compared to the helices with thymidin (Moran et al., J. Am. Chem. Soc. 1997, 119: 2056-2057). The authors conclude that the specificity of base pair recognition may not be due to H-bonding but to space filling since the modified base is incorporated into the double helix even though the H-bond cannot be made. […] This value agrees well with the mismatched pairing observed for the incorporation of nucleotides into DNA by polymerase enzymes (1 in 10^3-10^5) (Loeb and Kunkel, Annu. Rev. Biochem. 1982: 52, 429) and the preference of correct tRNA compared to near cognate tRNA in the codon:anticodon recognition (1 in 10^−3.5) (Thompson and Karim, Proc. Natl. Acad. Sc. U.S.A. 1982, 79: 4922-26).

[2] = system: helix; details: aqueous solution, compared to the helices with thymidin; cited from earlier work

Cc1cc([C@H]2C[C@H](O)[C@@H](CO)O2)c(F)cc1F [difluortoluoldesoxynucleosid]
reduced affinity [1]: 1000-10000 times | destabilization of helices [2]: 3.82 kcal/mol

From patent publication US8688387B2, “Method for the determination of intra- and intermolecular interactions in aqueous solution” (Bayer CropScience AG, priority 2006, dated 2014)
